Reference: patent EP3383875B1, “3-PYRIMIDINYL PYRROLO [2,3-B] PYRIDINE AS ANTICANCER AGENTS AND THE PROCESS FOR THE PREPARATION THEREOF” (Council Of Scientific & Industrial Research, priority 2015, dated 2017)
Where two headings read alike, the source gives them in different places.

Columns and labels:
CDK-2/cyclin A = CDK-2/cyclin A (Homo sapiens, UniProt P24941); assay: CDK inhibition assay, CDK-2/cyclin A against Histone HI, 33P-ATP; type: biochemical; conditions: at 500 nM
Method: Compounds were evaluated for their ability to inhibit CDK2 and CDK9 as given below.
CDK-2/cyclin A (5-20 mU diluted in 50 mM Hepes pH 7.5, 1 mM DTT, 0.02% Brij35, 100 mM NaCl) was assayed against Histone HI in a final volume of 25.5 µl containing 50 mM Hepes pH7.5, 1 mM DTT, 0.02% Brij35, 100 mM NaCl, Histone HI (1 mg/ml), 10 mM magnesium acetate and 0.02 mM [33P-g-ATP](500-1000 cpm/pmole) and incubated for 30 min at room temperature. Assays were stopped by addition of 5 µl of 0.5 M (3%) orthophosphoric acid and then harvested onto P81 Unifilter plates with a wash buffer of 50 mM orthophosphoric acid.

CDK-9/Cyclin T1 = CDK-9/Cyclin T1 (Homo sapiens, UniProt P50750); assay: CDK inhibition assay, CDK-9/Cyclin T1 against substrate peptide, 33P-ATP; type: biochemical; conditions: at 500 nM
Method: (50-1000 cpm/pmole) and incubated for 30 min at room temperature. Assays were stopped by addition of 5 µl of 0.5 M (3%) orthophosphoric acid and then harvested onto P81 Unifilter plates with a wash buffer of 50 mM orthophosphoric acid.

[1] = Table-7, read-out: In vitro CDK2 % of inhibition
[2] = read-out: inhibition against CDK2
[3] = Table-7, read-out: In vitro CDK9 % of inhibition
[4] = read-out: inhibition against CDK9
[5] = Table-6, read-out: In vitro CDK2 % of inhibition
[6] = Table-6, read-out: In vitro CDK9 % of inhibition

Sequence of CDK-9/Cyclin T1 (P50750 whole entry): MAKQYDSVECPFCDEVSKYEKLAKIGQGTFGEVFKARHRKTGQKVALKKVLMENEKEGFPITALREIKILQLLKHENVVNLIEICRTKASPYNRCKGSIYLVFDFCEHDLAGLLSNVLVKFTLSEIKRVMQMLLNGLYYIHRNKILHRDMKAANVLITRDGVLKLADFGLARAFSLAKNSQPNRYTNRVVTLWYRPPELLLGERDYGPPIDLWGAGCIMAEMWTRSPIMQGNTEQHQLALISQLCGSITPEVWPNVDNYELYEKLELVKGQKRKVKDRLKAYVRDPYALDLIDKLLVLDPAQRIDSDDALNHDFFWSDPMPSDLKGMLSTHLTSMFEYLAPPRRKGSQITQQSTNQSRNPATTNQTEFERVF
Sequence of CDK-9/Cyclin T1 (O60563 whole entry partner): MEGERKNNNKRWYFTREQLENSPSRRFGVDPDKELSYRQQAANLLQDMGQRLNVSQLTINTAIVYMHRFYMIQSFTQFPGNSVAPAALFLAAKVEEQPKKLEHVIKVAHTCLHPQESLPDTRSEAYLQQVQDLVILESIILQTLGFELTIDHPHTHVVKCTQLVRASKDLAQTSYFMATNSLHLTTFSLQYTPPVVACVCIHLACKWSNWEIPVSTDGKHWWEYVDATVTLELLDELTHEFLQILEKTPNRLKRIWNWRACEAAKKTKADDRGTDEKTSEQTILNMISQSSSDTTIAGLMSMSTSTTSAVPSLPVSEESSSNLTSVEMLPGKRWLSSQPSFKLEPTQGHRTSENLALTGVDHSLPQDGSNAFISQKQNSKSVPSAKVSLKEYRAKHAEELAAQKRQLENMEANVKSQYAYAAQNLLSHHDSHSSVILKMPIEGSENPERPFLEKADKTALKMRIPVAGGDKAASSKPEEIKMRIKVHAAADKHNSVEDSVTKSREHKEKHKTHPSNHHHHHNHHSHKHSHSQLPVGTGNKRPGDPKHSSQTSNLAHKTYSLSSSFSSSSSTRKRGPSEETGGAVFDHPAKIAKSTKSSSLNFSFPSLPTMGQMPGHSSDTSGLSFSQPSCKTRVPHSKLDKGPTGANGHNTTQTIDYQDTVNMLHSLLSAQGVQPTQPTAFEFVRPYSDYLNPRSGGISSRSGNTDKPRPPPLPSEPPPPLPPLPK

SMILES	inhibition at 0.5 µM (CDK-2/cyclin A; [1])	inhibition at 0.5 µM (CDK-2/cyclin A; [2])	inhibition at 0.5 µM (CDK-9/Cyclin T1; [3])	inhibition at 0.5 µM (CDK-9/Cyclin T1; [4])	inhibition at 0.5 µM (CDK-2/cyclin A; [5])	inhibition at 0.5 µM (CDK-9/Cyclin T1; [6])
FC(F)(F)c1cccc(-c2cnc3[nH]cc(-c4ccnc(NC5CCCC5)n4)c3c2)c1 [1A24, N-cyclopentyl-4-(5-(3-(trifluoromethyl)phenyl)-1H-pyrrolo[2,3-b]pyridin-3-yl)pyrimidin-2-amine]		> 50%		> 50%	> 50%	> 50%
CSc1ccccc1-c1cnc2[nH]cc(-c3ccnc(NC4CCCCCC4)n3)c2c1 [1A49, N-cycloheptyl-4-(5-(2-(methylthio)phenyl)-1H-pyrrolo[2,3-b]pyridin-3-yl)pyrimidin-2-amine]	< 50%		< 50%			
Cc1ccc(-c2cnc3[nH]cc(-c4ccnc(NC5CC5)n4)c3c2)cc1 [1A6, N-cyclopropyl-4-(5-(p-tolyl)-1H-pyrrolo[2,3-b]pyridin-3-yl)pyrimidin-2-amine]		> 70%		> 70%	> 70%	> 70%
CSc1ccccc1-c1cnc2[nH]cc(-c3ccnc(NC4CC4)n3)c2c1 [1A9, N-cyclopropyl-4-(5-(2-(methylthio)phenyl)-1H-pyrrolo[2,3-b]pyridin-3-yl)pyrimidin-2-amine]		> 70%		> 70%	> 70%	> 70%
Fc1cccc(-c2cnc3[nH]cc(-c4ccnc(NC5CCCC5)n4)c3c2)c1 [1A25, N-cyclopentyl-4-(5-(3-fluorophenyl)-1H-pyrrolo[2,3-b]pyridin-3-yl)pyrimidin-2-amine]					> 70%	> 70%
FC(F)(F)c1ccc(-c2cnc3[nH]cc(-c4ccnc(NC5CCCC5)n4)c3c2)cc1 [1A21, N-cyclopentyl-4-(5-(4-(trifluoromethyl)phenyl)-1H-pyrrolo[2,3-b]pyridin-3-yl)pyrimidin-2-amine]					< 50%	< 50%
Cc1cccc(-c2cnc3[nH]cc(-c4ccnc(NC5CCCCCC5)n4)c3c2)c1 [1A47, N-cycloheptyl-4-(5-(m-tolyl)-1H-pyrrolo[2,3-b]pyridin-3-yl)pyrimidin-2-amine]		> 50%		> 50%	> 50%	> 50%
COc1ccc2[nH]c(-c3cnc4[nH]cc(-c5ccnc(NC6CCCC6)n5)c4c3)cc2c1 [1A37, N-cyclopentyl-4-(5-(5-methoxy-1H-indol-2-yl)-1H-pyrrolo[2,3-b]pyridin-3-yl)pyrimidin-2-amine]					> 70%	> 70%
CSc1ccc(-c2cnc3[nH]cc(-c4ccnc(NC5CCCCCC5)n4)c3c2)cc1 [1A48, N-cycloheptyl-4-(5-(4-(methylthio)phenyl)-1H-pyrrolo[2,3-b]pyridin-3-yl)pyrimidin-2-amine]		> 50%		> 50%	> 50%	> 50%
c1ccc2[nH]c(-c3cnc4[nH]cc(-c5ccnc(NC6CC6)n5)c4c3)cc2c1 [1A19, 4-(5-(1H-indol-2-yl)-1H-pyrrolo[2,3-b]pyridin-3-yl)-N-cyclopropylpyrimidin-2-amine]		> 70%		> 70%	> 70%	> 70%
c1cncc(-c2cnc3[nH]cc(-c4ccnc(NC5CCCC5)n4)c3c2)c1 [1A35, N-cyclopentyl-4-(5-(pyridin-3-yl)-1H-pyrrolo[2,3-b]pyridin-3-yl)pyrimidin-2-amine]		> 50%		> 50%	> 50%	> 50%
c1ccc2c(-c3cnc4[nH]cc(-c5ccnc(NC6CCCC6)n5)c4c3)nccc2c1 [1A40, N-cyclopentyl-4-(5-(isoquinolin-1-yl)-1H-pyrrolo[2,3-b]pyridin-3-yl)pyrimidin-2-amine]		> 50%		> 50%	> 50%	> 50%
Cc1cccc(-c2cnc3[nH]cc(-c4ccnc(NC5CC5)n4)c3c2)c1 [1A7, N-cyclopropyl-4-(5-(m-tolyl)-1H-pyrrolo[2,3-b]pyridin-3-yl)pyrimidin-2-amine]		> 70%		> 70%	> 70%	> 70%
Fc1cccc(-c2cnc3[nH]cc(-c4ccnc(NC5CCCCCC5)n4)c3c2)c1 [1A45, N-cycloheptyl-4-(5-(3-fluorophenyl)-1H-pyrrolo[2,3-b]pyridin-3-yl)pyrimidin-2-amine]					> 70%	> 70%
FC(F)(F)Oc1ccc(-c2cnc3[nH]cc(-c4ccnc(NC5CCCCCC5)n4)c3c2)cc1 [1A43, N-cycloheptyl-4-(5-(4-(trifluoromethoxy)phenyl)-1H-pyrrolo[2,3-b]pyridin-3-yl)pyrimidin-2-amine]		> 50%		> 50%	> 50%	> 50%
CCc1ccccc1-c1cnc2[nH]cc(-c3ccnc(NC4CC4)n3)c2c1 [1A10, N-cyclopropyl-4-(5-(2-ethylphenyl)-1H-pyrrolo[2,3-b]pyridin-3-yl)pyrimidin-2-amine]		> 70%		> 70%	> 70%	> 70%

Next, values leading:

inhibition at 0.5 µM (CDK-2/cyclin A; [1])	inhibition at 0.5 µM (CDK-2/cyclin A; [2])	inhibition at 0.5 µM (CDK-9/Cyclin T1; [3])	inhibition at 0.5 µM (CDK-9/Cyclin T1; [4])	inhibition at 0.5 µM (CDK-2/cyclin A; [5])	inhibition at 0.5 µM (CDK-9/Cyclin T1; [6])	SMILES
> 70%	> 70%	> 70%	> 70%			FC(F)(F)c1cccc(-c2cnc3[nH]cc(-c4ccnc(NCCc5ccccc5)n4)c3c2)c1 [1B4, N-phenethyl-4-(5-(3-(trifluoromethyl)phenyl)-1H-pyrrolo[2,3-b]pyridin-3-yl)pyrimidin-2-amine]
> 50%	> 50%	> 50%	> 50%			FC(F)(F)Oc1ccc(-c2cnc3[nH]cc(-c4ccnc(NCCc5ccccc5)n4)c3c2)cc1 [1B3, N-phenethyl-4-(5-(4-(trifluoromethoxy)phenyl)-1H-pyrrolo[2,3-b]pyridin-3-yl)pyrimidin-2-amine]
> 70%	> 70%	> 70%	> 70%			Clc1ccc(-c2cnc3[nH]cc(-c4ccnc(NC5CCCCCC5)n4)c3c2)cc1 [1A52, 4-(5-(4-chlorophenyl)-1H-pyrrolo[2,3-b]pyridin-3-yl)-N-cycloheptylpyrimidin-2-amine]
> 70%	> 70%	> 70%	> 70%			COc1ccc2[nH]c(-c3cnc4[nH]cc(-c5ccnc(NC6CCCCCC6)n5)c4c3)cc2c1 [1A57, N-cycloheptyl-4-(5-(5-methoxy-1H-indol-2-yl)-1H-pyrrolo[2,3-b]pyridin-3-yl)pyrimidin-2-amine]
> 50%	> 50%	> 50%	> 50%			COc1ccc2[nH]c(-c3cnc4[nH]cc(-c5ccnc(NCCc6ccccc6)n5)c4c3)cc2c1 [1B17, 4-(5-(5-methoxy-1H-indol-2-yl)-1H-pyrrolo[2,3-b]pyridin-3-yl)-N-phenethylpyrimidin-2-amine]
> 70%	> 70%	> 70%	> 70%			Cc1cccc(-c2cnc3[nH]cc(-c4ccnc(NCCc5ccccc5)n4)c3c2)c1 [1B7, N-phenethyl-4-(5-(m-tolyl)-1H-pyrrolo[2,3-b]pyridin-3-yl)pyrimidin-2-amine]
> 50%	> 50%	> 50%	> 50%			CSc1ccccc1-c1cnc2[nH]cc(-c3ccnc(NCCc4ccccc4)n3)c2c1 [1B9, 4-(5-(2-(methylthio)phenyl)-1H-pyrrolo[2,3-b]pyridin-3-yl)-N-phenethylpyrimidin-2-amine]
> 70%	> 70%	> 70%	> 70%			c1ccc2c(-c3cnc4[nH]cc(-c5ccnc(NC6CCCCCC6)n5)c4c3)nccc2c1 [1A60, N-cycloheptyl-4-(5-(isoquinolin-1-yl)-1H-pyrrolo[2,3-b]pyridin-3-yl)pyrimidin-2-amine]
> 70%	> 70%	> 70%	> 70%			Cc1ccc(-c2cnc3[nH]cc(-c4ccnc(NCCc5ccccc5)n4)c3c2)cc1 [1B6, N-phenethyl-4-(5-(p-tolyl)-1H-pyrrolo[2,3-b]pyridin-3-yl)pyrimidin-2-amine]
> 70%	> 70%	> 70%	> 70%			c1cc(-c2c[nH]c3ncc(-c4ccoc4)cc23)nc(NC2CCCCCC2)n1 [1A56, N-cycloheptyl-4-(5-(furan-3-yl)-1H-pyrrolo[2,3-b]pyridin-3-yl)pyrimidin-2-amine]
> 50%	> 50%	> 50%	> 50%			CCc1ccccc1-c1cnc2[nH]cc(-c3ccnc(NCCc4ccccc4)n3)c2c1 [1B10, 4-(5-(2-ethylphenyl)-1H-pyrrolo[2,3-b]pyridin-3-yl)-N-phenethylpyrimidin-2-amine]
